{
  "source": "ChEMBL document CHEMBL1132617",
  "about": "“Diversity analysis of 14 156 molecules tested by the National Cancer Institute for anti-HIV activity using the quantitative structure-activity relational expert system MCASE” (J Med Chem, 1999)",
  "note": "Activity calls are given as the source filed them. No cut-off for these calls is given here.",
  "data": [
    {"molecular_target": "Human immunodeficiency virus type 1 integrase (Human immunodeficiency virus 1) (UniProt Q7ZJM1)", "sequence (Q7ZJM1 as listed by the source)": "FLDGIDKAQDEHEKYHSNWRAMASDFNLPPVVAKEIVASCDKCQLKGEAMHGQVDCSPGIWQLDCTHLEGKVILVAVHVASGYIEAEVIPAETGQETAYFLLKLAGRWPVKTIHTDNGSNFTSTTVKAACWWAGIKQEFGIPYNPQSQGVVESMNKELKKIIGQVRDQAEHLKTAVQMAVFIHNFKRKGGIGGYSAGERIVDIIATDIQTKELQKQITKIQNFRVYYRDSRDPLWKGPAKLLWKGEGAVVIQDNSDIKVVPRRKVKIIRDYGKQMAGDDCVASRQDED", "experiment": "Antiviral activity as inhibition of HIV integrase; Inactive", "values": [
      {"molecule": "O=c1c(O)c(-c2ccc(O)cc2)oc2cc(O)cc(O)c12", "Activity": "inactive"}
    ]},
    {"molecular_target": "Human immunodeficiency virus type 1 protease (Human immunodeficiency virus 1) (UniProt Q72874)", "experiment": "Antiviral activity as inhibition of HIV protease; Active", "values": [
      {"molecule": "CCCCCCc1cc2c(cc1O)CC(=O)C(C(c1ccccc1)C1COc3cc(O)c(CCCCCC)c(O)c3C1)=C2O", "note": "(centres undefined)", "Activity": "Active"},
      {"molecule": "O=C1C2=C(C(=O)c3ccccc31)C(O)(S(=O)(=O)O)C(O)(S(=O)(=O)O)C1N=CC=CC21", "note": "(centres undefined)", "Activity": "Active"}
    ]},
    {"molecular_target": "Human immunodeficiency virus type 1 protease (Human immunodeficiency virus 1) (UniProt Q72874)", "experiment": "Antiviral activity as inhibition of HIV protease; Inactive", "values": [
      {"molecule": "O=C(O)C1Cc2cc3c(cc2C(O)C1CO)OCO3", "note": "(centres undefined)", "Activity": "inactive"}
    ]},
    {"tested_on": "Human immunodeficiency virus 1", "experiment": "HIV antiviral activity", "format": "functional", "values": [
      {"molecule": "C=C/C(=C\\C)NC(C)=O", "Average activity": 60},
      {"molecule": "C=C/C=C\\C=C\\[S+]([O-])/C=C/C", "note": "(centres undefined)", "Average activity": 51},
      {"molecule": "CCC(Cl)CC", "Average activity": 56},
      {"molecule": "C=C/C(=C\\C)C(=O)N/C(C)=C/C", "Average activity": 37},
      {"molecule": "CC(=O)NC(=O)N(C)C1CCC(N=[N+]=[N-])O1", "note": "(centres undefined)", "Average activity": 64},
      {"molecule": "C=C/C=C\\C=C\\[PH](=O)/C=C/C", "note": "(centres undefined)", "Average activity": 51},
      {"molecule": "CCC(I)CC", "Average activity": 56},
      {"molecule": "CCC1OC1C", "note": "(centres undefined)", "Average activity": 56},
      {"molecule": "C=C/C=C/C=C/S(=O)(=O)/C=C/C", "Average activity": 51},
      {"molecule": "CCC(F)CC", "Average activity": 56},
      {"molecule": "C=C/C=C\\C=C\\C(=O)/C=C/C", "Average activity": 51},
      {"molecule": "C=CC(=C\\C)/N=C(\\C)S", "Average activity": 60}
    ]},
    {"molecular_target": "Human immunodeficiency virus type 1 reverse transcriptase (Human immunodeficiency virus 1) (UniProt Q72547)", "experiment": "Antiviral activity as inhibition of HIV reverse transcriptase; Inactive", "values": [
      {"molecule": "CC1C(=O)NC(=O)N(COCCO)C1Sc1cccc(O)c1", "note": "(centres undefined)", "Activity": "inactive"}
    ]},
    {"molecular_target": "Human immunodeficiency virus type 1 reverse transcriptase (Human immunodeficiency virus 1) (UniProt Q72547)", "experiment": "Antiviral activity as inhibition of HIV reverse transcriptase; Active", "values": [
      {"molecule": "CCOCN1C(=O)NC(=O)C(C)C1Sc1ccccc1", "note": "(centres undefined)", "Activity": "Active"},
      {"molecule": "CCN1c2ccccc2C2NC=C(C)C2c2ccc(OC)cc21", "note": "(centres undefined)", "Activity": "Active"}
    ]}
  ]
}
